Our source for the TGI values is PubChem BioAssay (NCI).

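Assay format: 96-well plates, 48-hour exposure. TGI denotes the concentration required for complete inhibition of growth.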 Where only a bound is given, the exact number is not on record here.

Test systems include CAKI-1 renal; DU-145 prostate; HCC-2998 colon; LOX IMVI melanoma; MDA-MB-231 breast; MDA-MB-435; NCI-H460 lung; SF-539 CNS; SNB-19 CNS; SW-620 colon; A498 renal; M14 melanoma.
Holding throughout (experiment): NCI tumour cell line growth inhibition, 48 h

In the case of `Nc1nc(Cl)cc(NCC2(CCO)CCC2)n1`, the TGI with CAKI-1 renal, with DU-145 prostate, in the assay on HCC-2998 colon, in the assay with LOX IMVI melanoma, in the assay on MDA-MB-231 breast and with MDA-MB-435 was over 100 µM each time. Also, the TGI in the assay on NCI-H460 lung, with SF-539 CNS, in the assay on SNB-19 CNS and in the assay on SW-620 colon was over 100 µM in each case.

As for `Cc1nc(OCc2ccccc2)c2ncn(CCO)c2n1`, the TGI in the assay with A498 renal, in the assay on CAKI-1 renal, with DU-145 prostate, in the assay with LOX IMVI melanoma, in the assay with M14 melanoma and in the assay on MDA-MB-231 breast was over 100 µM in each case. For the same compound, the TGI in the assay on MDA-MB-435, in the assay with NCI-H460 lung, in the assay with SF-539 CNS, in the assay on SNB-19 CNS and in the assay on SW-620 colon was over 100 µM each time.

For the compound `COC(NC(=O)Nc1ccc(C)cc1)(C(F)(F)F)C(F)(F)F`, the TGI with A498 renal was 90.1 µM; with DU-145 prostate, over 100 µM; in the assay on LOX IMVI melanoma, over 100 µM; in the assay with M14 melanoma, over 100 µM; with MDA-MB-231 breast, 99 µM; with MDA-MB-435, over 100 µM. For the same compound, the TGI in the assay with NCI-H460 lung is over 100 µM; in the assay with SF-539 CNS, over 100 µM; in the assay on SNB-19 CNS, 87.2 µM; with SW-620 colon, over 100 µM.

As to `O=P1(c2ccccc2)C(c2ccccc2)CCC1c1ccccc1` (stereo unspecified), the TGI in the assay with CAKI-1 renal was 73.9 µM; with DU-145 prostate it was over 100 µM; in the assay with HCC-2998 colon, over 100 µM; in the assay on LOX IMVI melanoma, over 100 µM; with M14 melanoma, over 100 µM; with MDA-MB-231 breast, over 100 µM. Further, the TGI in the assay with MDA-MB-435, with SF-539 CNS, in the assay on SNB-19 CNS and with SW-620 colon was over 100 µM in each case.

As to `CN(C)Cc1cc(Cl)c(O)c(CN(C)C)c1`, the TGI with A498 renal, in the assay on CAKI-1 renal, in the assay on DU-145 prostate, in the assay with HCC-2998 colon, in the assay with LOX IMVI melanoma and in the assay with M14 melanoma was over 100 µM in each case. Besides, the TGI in the assay with MDA-MB-231 breast, in the assay on MDA-MB-435, with NCI-H460 lung, in the assay with SNB-19 CNS and in the assay with SW-620 colon was over 100 µM throughout.

As for `NCC(=O)Nc1ccccc1`, the TGI in the assay with A498 renal, with CAKI-1 renal, in the assay with DU-145 prostate, with HCC-2998 colon, with LOX IMVI melanoma and with M14 melanoma was over 100 µM in each case. Also, the TGI in the assay with MDA-MB-231 breast, in the assay with MDA-MB-435, in the assay on NCI-H460 lung, in the assay with SNB-19 CNS and in the assay with SW-620 colon was over 100 µM throughout.

Turning to `O=C(OC1=CCN(Br)C1=O)C1=C(O)C(=O)N(Br)C1`, the TGI in the assay on A498 renal is over 100 µM; in the assay with CAKI-1 renal it was over 100 µM; with DU-145 prostate, over 100 µM; with HCC-2998 colon, over 100 µM; in the assay with LOX IMVI melanoma, 54 µM; in the assay with M14 melanoma, over 100 µM. In addition, the TGI in the assay with MDA-MB-231 breast is 86.3 µM; in the assay on MDA-MB-435, over 100 µM; with NCI-H460 lung it was over 100 µM; with SNB-19 CNS it was 43.6 µM; in the assay with SW-620 colon it was 65.2 µM.

Turning to `Nn1c(CCCCCCCCc2nnc(-c3c(O)ccc4ccccc34)n2N)nnc1-c1c(O)ccc2ccccc12`, the TGI in the assay with CAKI-1 renal, with DU-145 prostate, with HCC-2998 colon, in the assay on LOX IMVI melanoma, with M14 melanoma and with MDA-MB-231 breast was over 100 µM in each case. Besides, the TGI in the assay on MDA-MB-435, in the assay with NCI-H460 lung, with SF-539 CNS, in the assay with SNB-19 CNS and in the assay with SW-620 colon was over 100 µM in each case.

`CC1CCN(C(C)C)P(=S)(Cc2ccccc2)O1` (stereo unspecified): the TGI in the assay on CAKI-1 renal, in the assay with DU-145 prostate, in the assay with HCC-2998 colon, in the assay with LOX IMVI melanoma, in the assay on M14 melanoma and with MDA-MB-231 breast was over 100 µM each time. For the same compound, the TGI in the assay on MDA-MB-435, in the assay with NCI-H460 lung, in the assay on SF-539 CNS, in the assay with SNB-19 CNS and in the assay with SW-620 colon was over 100 µM each time.

Turning to `CO/C=C(/C(=O)OC)[C@@H]1C[C@@H]1c1ccc2ccccc2c1`, the TGI in the assay on A498 renal is over 100 µM; with CAKI-1 renal, 66 µM; in the assay with DU-145 prostate, over 100 µM; with HCC-2998 colon, 50.5 µM; with M14 melanoma, 71.9 µM; in the assay with MDA-MB-231 breast it was over 100 µM. The TGI with MDA-MB-435 is 35.1 µM; with NCI-H460 lung it was over 100 µM; in the assay on SF-539 CNS, 44.2 µM; in the assay with SNB-19 CNS, over 100 µM.

Turning to `COc1ccc(C2CC(c3c(O)ccc4ccccc34)=NN2)cc1OC` (stereo unspecified), the TGI in the assay on A498 renal was 43.6 µM; with CAKI-1 renal, 58.4 µM; in the assay with DU-145 prostate it was 36.1 µM; with HCC-2998 colon, 6.15 µM; with M14 melanoma it was 17.3 µM; with MDA-MB-231 breast, 53.4 µM. Further, the TGI with MDA-MB-435 was 11.6 µM; with NCI-H460 lung it was 8.24 µM; in the assay with SF-539 CNS it was 18.4 µM; with SNB-19 CNS, 6.34 µM.

For `O=[N+]([O-])c1ccc(-c2csc(N=Nc3c(O)[nH]c4ccccc34)n2)cc1`, the TGI in the assay on CAKI-1 renal is 39.4 µM; with DU-145 prostate, over 100 µM; in the assay on HCC-2998 colon it was 50.5 µM; in the assay on LOX IMVI melanoma, over 100 µM; with M14 melanoma it was 36.4 µM; with MDA-MB-231 breast it was over 100 µM. Moreover, the TGI was over 100 µM in the assay on MDA-MB-435; 22.9 µM in the assay on NCI-H460 lung; 39.3 µM in the assay on SF-539 CNS; over 100 µM in the assay on SNB-19 CNS; over 100 µM in the assay with SW-620 colon.

For `Cc1ncn(-c2ccccc2O)c1C`, the TGI in the assay on A498 renal, in the assay with CAKI-1 renal, in the assay with DU-145 prostate, with LOX IMVI melanoma, with M14 melanoma and in the assay with MDA-MB-231 breast was over 100 µM each time. In addition, the TGI in the assay on MDA-MB-435, with SF-539 CNS, in the assay with SNB-19 CNS and with SW-620 colon was over 100 µM throughout.

In the case of `COC(=O)Nc1nc2ccc(NS(=O)(=O)c3cccs3)cc2[nH]1`, the TGI is 91.7 µM with A498 renal; over 100 µM in the assay on CAKI-1 renal; over 100 µM with DU-145 prostate; over 100 µM in the assay with LOX IMVI melanoma; 76 µM in the assay with M14 melanoma; over 100 µM with MDA-MB-231 breast. The TGI in the assay with MDA-MB-435 was 21.4 µM; with NCI-H460 lung, over 100 µM; with SF-539 CNS, over 100 µM; with SNB-19 CNS, over 100 µM; in the assay on SW-620 colon it was over 100 µM.

`COC1OC2COC1(OCc1ccccc1)C1OC(C)(C)OC21` (stereo unspecified): the TGI in the assay with A498 renal, in the assay with CAKI-1 renal, in the assay with DU-145 prostate, in the assay on HCC-2998 colon, in the assay with M14 melanoma and with MDA-MB-231 breast was over 100 µM each time. The TGI in the assay on MDA-MB-435, in the assay with NCI-H460 lung, in the assay with SNB-19 CNS and in the assay on SW-620 colon was over 100 µM in each case.

Consider `O=c1onc2n1-c1ccc(Cl)cc1C(=S)N1CSCC21` (stereo unspecified), for which the TGI in the assay on A498 renal is 64 µM; with CAKI-1 renal, over 100 µM; with DU-145 prostate it was over 100 µM; with HCC-2998 colon, 35.4 µM; in the assay on LOX IMVI melanoma it was over 100 µM; in the assay on M14 melanoma it was 28.8 µM. Moreover, the TGI came out at 41.8 µM with MDA-MB-231 breast; 23.8 µM with MDA-MB-435; 40 µM with NCI-H460 lung; 52.5 µM in the assay with SNB-19 CNS; 47.7 µM with SW-620 colon.

On to `CCOC(=O)c1c(O)cn2c1[nH]c1cccc3cccc2c31`, for which the TGI in the assay on A498 renal, with CAKI-1 renal, with DU-145 prostate, in the assay with HCC-2998 colon, in the assay with LOX IMVI melanoma and in the assay with M14 melanoma was over 100 µM throughout. In addition, the TGI with MDA-MB-231 breast, in the assay on MDA-MB-435, in the assay on NCI-H460 lung, with SNB-19 CNS and with SW-620 colon was over 100 µM in each case.

Regarding `O=C(Nc1ccccc1)N(CCN(Cc1ccccc1)C(=O)Nc1ccccc1)CCN(Nc1ccccc1)C(=O)Nc1ccccc1`, the TGI in the assay with A498 renal, with CAKI-1 renal, with DU-145 prostate, with HCC-2998 colon, in the assay on LOX IMVI melanoma and with M14 melanoma was over 100 µM throughout. In addition, the TGI with MDA-MB-231 breast, in the assay on MDA-MB-435, in the assay on NCI-H460 lung, with SNB-19 CNS and with SW-620 colon was over 100 µM each time.

Consider `Cc1cc(N(CCC#N)CCC#N)ccc1/C(N=Nc1ccc([N+](=O)[O-])cc1)=N\NC(=O)c1cc(Cl)ccc1O`, for which the TGI is 94.5 µM with A498 renal; over 100 µM in the assay on CAKI-1 renal; over 100 µM in the assay on DU-145 prostate; 46.2 µM in the assay on HCC-2998 colon; over 100 µM in the assay with M14 melanoma; over 100 µM with MDA-MB-231 breast. Moreover, the TGI with MDA-MB-435, in the assay with NCI-H460 lung, in the assay with SF-539 CNS and in the assay on SNB-19 CNS was over 100 µM throughout.
